Values of other authors as cited in paper PMC4806784 (Investigational new drugs, 2015).
Where two headings read alike, the source gives them in different places.

Conditions: 60 mg/m^2 q 3 week, cited from earlier work
[1] = chemotherapy-naïve elderly patients with advanced non-small cell lung cancer, ref a more recent trial
[2] = metastatic breast cancer, second line

CC(=O)O[C@@]12CO[C@@H]1C[C@H](O)[C@@]1(C)C(=O)[C@H](O)C3=C(C)[C@@H](OC(=O)[C@H](O)[C@@H](NC(=O)OC(C)(C)C)c4ccccc4)C[C@@](O)([C@@H](OC(=O)c4ccccc4)[C@H]21)C3(C)C [docetaxel]
incidence of Grade 3 to 4 neutropenia [1]: 89% | incidence of febrile neutropenia [1]: 15% | incidence of Grade 3 to 4 neutropenia [2]: 76% | incidence of febrile neutropenia [2]: 5%
